Measured values reported in US8012944B2, “Method for treating cancer using IAP antisense oligomer and chemotherapeutic agent” (Pharmascience Inc., priority 2003, dated 2011).
Oligonucleotides are written 5' to 3', each unit as a sugar letter and its base; * is a phosphorothioate linkage, no mark a phosphodiester; rarer units and linkages stand in square brackets, end groups in braces. Plain capitals give the bases only. d = 2'-deoxy (DNA); m = 2'-O-methyl

Experiments:
XIAP mRNA [1] = assay: XIAP mRNA knock-down in H460 cells (real-time RT-PCR / TaqMan); assay type: cell-based, human
Protocol: RNA was extracted from cells lysed in RLT buffer (QIAGEN, Valencia, Calif.), and purified using QIAGEN RNeasy columns/kits. Real-time quantitative PCR was performed on a Perkin-Elmer ABI 7700 Prism PCR machine. RNA was reverse transcribed and amplified according to the TaqMan Universal PCR Master Mix protocol of PE Biosystems, using primers and probes designed to specifically recognize XIAP, HIAP1, survivin, or GAPDH. For human survivin, the forward primer was 5′-[…]-3′ (SEQ ID NO: 263), the reverse primer was 5′-GAAAGGAAAGCGCAACCG-3′ (SEQ ID NO: 264), and the probe was 5′-(FAM)[…](TAMRA)-3′ (SEQ ID NO: 265). For human HIAP1, the forward primer was 5′-[…]-3′ (SEQ ID NO: 266), the reverse primer was 5′-[…]-3′ (SEQ ID NO: 267), and the probe was 5′-(FAM)[…](TAMRA)-3′ (SEQ ID NO: 268). For human XIAP, the forward primer was 5′-[…]-3′ (SEQ ID NO: 269), the reverse primer was 5′-[…]-3′ (SEQ ID NO: 270), and the probe was 5′-(FAM)[…](TAMRA)-3′ (SEQ ID NO: 271). For human GAPDH, the forward primer was 5′-GAAGGTGAAGGTCGGAGTC-3′ (SEQ ID NO: 272), the reverse primer was 5′-GAAGATGGTGATGGGATTC-3′ (SEQ ID NO: 273), and the probe was 5′-(JOE)[…](TAMRA)-3′ (SEQ ID NO: 274). FAM is 6-carboxyfluoroscein, JOE is 6-carboxy-4,5-dichloro-2,7-dimethoxyfluoroscein, and TAMRA is 6-carboxy-N,N,N′,N′-tetramethylrhodamine. FAM and JOE are 5′ reporter dyes, while TAMRA is a 3′ quencher dye.
Relative quantification of gene expression was performed as described in the PE Biosystems manual using GAPDH as an internal standard. The comparative Ct (cycle threshold) method was used for relative quantitation of IAP mRNA levels compared to GAPDH mRNA levels. Briefly, real-time fluorescence measurements were taken at each PCR cycle and the threshold cycle (Ct) value for each sample was calculated by determining the point at which fluorescence exceeded a threshold limit of 30 times the baseline standard deviation. The average baseline value and the baseline SD are calculated starting from the third cycle baseline value and stopping at the baseline value three cycles before the signal starts to exponentially rise. The PCR primers and/or probes for the specific IAPs were designed to span at least one exon-intron boundary separated by 1 kb or more of genomic DNA, to reduce the possibility of amplifying and detecting genomic DNA contamination. The specificity of the signal, and possible contamination from DNA, were verified by treating some RNA samples with either DNase or RNase, prior to performing the reverse transcription and PCR reaction steps.
A portion of the 96 nucleobase oligomers depicted in Table 2 were rescreened for their ability to knock-down XIAP mRNA in NCI-H460 cells at […] post-transfection.
One day prior to transfection, H460 cells were plated in 6- or 96-well tissue culture plates. Phosphorothioate antisense oligonucleotides were delivered into cells with Lipofectamine 2000 (Life Technologies) in the form of liposome-oligonucleotide complexes. Following a 4.5 or 6 h transfection, the transfection medium was replaced with RPMI medium containing 10% FBS, and the cells incubated for another 24 or 48 h.
Total RNA from H460 cells treated with liposome-oligonucleotide complexes for 6 hours was immediately isolated using RNeasy mini spin columns and DNase treatment (QIAGEN, Valencia, Calif.). Specific XIAP mRNA was measured using a real-time quantitative RT-PCR method. […]

XIAP mRNA [2] = assay: as above; assay type: cell-based, human; conditions: 2 × 2 MBO; NCI-H460 cells, 9 hours post-transfection; relative level (mock control 1.01)

Row | Substance | XIAP down-regulation H460 RNA (XIAP mRNA [1]) [%] | XIAP RNA (XIAP mRNA [2])
1 | AAAATTCTAAGTACCTGCA (mA*mAdAdAdTdTdCdTdAdAdGdTdAdCdCdTdGmC*mA; antisense) [Code A1] | 48 | 0.46
2 | AAAGCATAAAATCCAGCTC (antisense; sugars from the 5' end m2 d15 m2, backbone, methylation of C and T or U not given here; further chemistry not fully specified) [Code C8] | 16 | 1.01
3 | AAGCAGTGCACTTGGTCAC (antisense; sugars from the 5' end m2 d15 m2, linkages s1 o16 s1 (s phosphorothioate, o phosphodiester), methylation of C not given here) [Code G6] | 69 | –
4 | AAGCTTCTCCTCTTGCAGG (antisense; sugars from the 5' end m2 d15 m2, linkages s1 o16 s1 (s phosphorothioate, o phosphodiester), methylation of C not given here) [Code F10] | 51 | 0.64
5 | AAGTAAAGATCCGTGCTTC (antisense; sugars from the 5' end m2 d15 m2, backbone, methylation of C and T or U not given here; further chemistry not fully specified) [Code H7] | 63 | 0.49
6 | AAGTCAGTTCACATCACAC (antisense; sugars from the 5' end m2 d15 m2, linkages s1 o16 s1 (s phosphorothioate, o phosphodiester), methylation of C not given here) [Code F11] | 64 | 0.36
7 | AATGTGAAACACAAGCAAC (antisense AANGNGAAACACAAGCAAC; sugars from the 5' end m2 d15 m2, linkages s1 o16 s1 (s phosphorothioate, o phosphodiester), the base at N not given here) [Code C3] | 43 | 0.55
8 | ACACGACCGCTAAGAAACA (antisense ACACGACCGCNAAGAAACA; sugars from the 5' end m2 d15 m2, linkages s1 o16 s1 (s phosphorothioate, o phosphodiester), the base at N not given here) [Code H2] | 46 | 0.56
9 | ACAGGACTACCACTTGGAA (antisense; chemistry not fully specified) [Code B4] | 76 | –
10 | ACATAGTGTTTTGCCACTT (antisense; sugars from the 5' end m2 d15 m2, backbone, methylation of C and T or U not given here; further chemistry not fully specified) [Code F12] | 74 | 0.26
11 | ACATTATATTAGGAAATCC (mA*mCdAdTdTdAdTdAdTdTdAdGdGdAdAdAdTmC*mC; antisense) [Code D3] | 30 | 0.68
12 | ACTGGGCTTCCAATCAGTT (antisense; sugars from the 5' end m2 d15 m2, backbone, methylation of C and T or U not given here; further chemistry not fully specified) [Code H8] | – | 0.61
13 | AGATGGTATCATCAATTCT (antisense; sugars from the 5' end m2 d15 m2, backbone, methylation of C and T or U not given here; further chemistry not fully specified) [Code F9] | 19 | 0.97
14 | AGCACATGGGACACTTGTC (antisense; sugars from the 5' end m2 d15 m2, backbone, methylation of C and T or U not given here; further chemistry not fully specified) [Code B11] | 63 | 0.39
15 | AGCACATTGTTTACAAGTG (antisense; sugars from the 5' end m2 d15 m2, backbone, methylation of C and T or U not given here; further chemistry not fully specified) [Code A11] | 68 | 0.36
16 | AGTATGAAATATTTCTGAT (antisense; sugars from the 5' end m2 d15 m2, backbone and T or U not given here; further chemistry not fully specified) [Code E1] | 69 | 0.31
17 | AGTTCTCAAAAGATAGTCT (antisense; sugars from the 5' end m2 d15 m2, backbone and T or U not given here; further chemistry not fully specified) [Code G5] | 30 | 0.68
18 | ATATTTCTATCCATACAGA (antisense; sugars from the 5' end m2 d15 m2, backbone, methylation of C and T or U not given here; further chemistry not fully specified) [Code G10] | 56 | 0.49
19 | ATGATCTCTGCTTCCCAGA (antisense; sugars from the 5' end m2 d15 m2, backbone and T or U not given here; further chemistry not fully specified) [Code E5] | 46 | 0.52
20 | ATTATTTTCTTAATGTCCT (antisense; sugars from the 5' end m2 d15 m2, backbone, methylation of C and T or U not given here; further chemistry not fully specified) [Code A10] | 29 | 0.85
21 | ATTCAAGGGATCAAAGTTG (antisense; sugars from the 5' end m2 d15 m2, backbone and T or U not given here; further chemistry not fully specified) [Code A2] | 58 | 0.42
22 | ATTCAATCAGGGTAATAAG (antisense; sugars from the 5' end m2 d15 m2, backbone, methylation of C and T or U not given here; further chemistry not fully specified) [Code E11] | 48 | 0.52
23 | ATTGGTTCCAATGTGTTCT (antisense; chemistry not fully specified) [Code F1] | 81 | –
24 | MAmUGACCACTTCCTCTATmGmG (ANGACCACNNCCNCNANGG; 2'-O-methyl modifications, chemistry not fully specified) [DE4 rev, reference compound] | – | 1.06
25 | TATCCACTTATGACATAAA (antisense; chemistry not fully specified) [Code A3] | 27 | –
